Starred links: 1 amine or outer side, 2 acyl side, 3 side chain; linkers in the order of their positions; H or OH if unused. Positions of bridges follow the written chain, without caps; N, C: chain ends. Non-standard residues stand in square brackets, D forms with d. Residues, ends and D or L forms follow the SMILES beside them. hSer = N[C@@H](CCO)C(=O)O; X1 = C(CC[*:2])C[*:1]; Aib = CC(C)(N)C(=O)O
What follows are molecules tested against T1, Vitamin D3 receptor (Homo sapiens, UniProt P11473) (assay: Inhibition of human VDR-coactivator interaction).
T1 sequence (P11473 whole entry): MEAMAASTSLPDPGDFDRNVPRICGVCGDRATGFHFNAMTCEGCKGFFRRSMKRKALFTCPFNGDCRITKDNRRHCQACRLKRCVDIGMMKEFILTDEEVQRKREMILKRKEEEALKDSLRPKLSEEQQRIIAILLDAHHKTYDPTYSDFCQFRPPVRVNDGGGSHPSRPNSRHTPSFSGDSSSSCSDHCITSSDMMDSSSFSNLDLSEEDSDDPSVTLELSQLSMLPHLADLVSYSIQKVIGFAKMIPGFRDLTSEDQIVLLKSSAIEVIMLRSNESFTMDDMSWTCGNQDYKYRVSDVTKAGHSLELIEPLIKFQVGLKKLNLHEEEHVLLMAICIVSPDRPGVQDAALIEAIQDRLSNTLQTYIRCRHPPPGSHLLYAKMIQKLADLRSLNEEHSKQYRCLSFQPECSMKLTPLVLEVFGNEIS

Compound	IC50 [µM]
CC(C)C[C@@H]1NC(=O)[C@H](CC(C)C)NC(=O)C(C)(C)NC(=O)[C@@H](NC(=O)[C@H](CC(C)C)NC(=O)[C@@H](N)CC(C)C)COCCCCOC[C@@H](C(=O)O)NC1=O	610
CC(C)C[C@@H]1NC(=O)[C@H](CC(C)C)NC(=O)C(C)(C)NC(=O)[C@H](NC(=O)[C@H](CC(C)C)NC(=O)[C@@H](N)CC(C)C)COCCCCOC[C@@H](C(=O)O)NC1=O	610
CC(C)C[C@@H]1NC(=O)[C@H](CC(C)C)NC(=O)C(C)(C)NC(=O)[C@@H](NC(=O)[C@H](CC(C)C)NC(=O)[C@@H](N)CC(C)C)CCOCC(O)C(O)COCC[C@@H](C(=O)O)NC1=O (mixture of isomers)	3.2
CC(C)C[C@@H]1NC(=O)[C@H](CC(C)C)NC(=O)C(C)(C)NC(=O)[C@@H](NC(=O)[C@H](CC(C)C)NC(=O)[C@@H](N)CC(C)C)CCOCCCCOCC[C@@H](C(=O)O)NC1=O (H-LL[hSer][Aib]LL[hSer]-OH; linker 3-7 via X1)	220
CC(C)C[C@@H]1NC(=O)[C@H](CC(C)C)NC(=O)C(C)(C)NC(=O)[C@@H](NC(=O)[C@H](CC(C)C)NC(=O)[C@@H](N)CC(C)C)COCCCCOC[C@H](C(=O)O)NC1=O	430

Continued by falling IC50, values first:

IC50 [µM]	Compound
600	CC(C)C[C@@H]1NC(=O)[C@H](CC(C)C)NC(=O)C(C)(C)NC(=O)[C@H](NC(=O)[C@H](CC(C)C)NC(=O)[C@@H](N)CC(C)C)COCCCCOC[C@H](C(=O)O)NC1=O
520	CC(C)C[C@@H]1NC(=O)[C@H](CC(C)C)NC(=O)C(C)(C)NC(=O)[C@@H](NC(=O)[C@H](CC(C)C)NC(=O)[C@@H](N)CC(C)C)CCOCCCCOC[C@@H](C(=O)O)NC1=O (H-LL[hSer][Aib]LLS-OH; linker 3-7 via X1)

Source: ChEMBL document CHEMBL2406944, “Development of stapled short helical peptides capable of inhibiting vitamin D receptor (VDR)-coactivator interactions” (Bioorg Med Chem Lett, 2013)
